# According to patent US20130253039A1, “COLORECTAL CANCER TREATMENTS AND DIAGNOSTIC IMPROVEMENTS” (priority 2012, published 2013):
# Where two headings read alike, the source gives them in different places.
# What was measured:
# [1] = test system: hNMNAT2-over-expressed HT29; assay: Antitumor activity in athymic mice with subcutaneous hNMNAT2-over-expressed HT29 tumors; type: in vivo
# Experimental: (§1) In vivo studies were conducted studies to compare antitumor activity of tiazofurin in athymic mice implanted subcutaneously with wild-type and hNMNAT2-over-expressed HT29 cell lines. Groups of five female athymic mice 6-8 weeks old, weighing 16-18 grams, obtained from Harlan Sprague Dawley, Indianapolis, Ind., were injected with wild-type or hNMNAT2-over-expressed HT29 (2×10^6 cells/mice), and tumors were allowed to establish for 7 days. Mice were then treated intraperitoneally with saline or tiazofurin once-a-day for 10 days (QD10) and tumor volume and weights were monitored twice a week. […] There was a dose-dependent decrease in tumor volume following tiazofurin treatment in mice bearing wild-type HT29 (70% decrease in tumor volume at 200 mg/kg and 50% decrease in tumor volume at 50 mg/kg). […] These studies indicate that hNMNAT2-gene-targeted tiazofurin therapy for colorectal cancer is feasible. Further decreasing the dose of tiazofurin will be possible by targeting FR and/or CEA and encapsulating tiazofurin in folate-tethered nanoparticles. Further targeting would translate to additional lowering of tiazofurin induced side-effects.
# [2] = dose of 1,100 mg/m^2, patients; cited from earlier work
# [3] = test system: Caco2; assay: Cell-kill assay, wild-type Caco2; type: cell-based, human
# Experimental: (§2) Human colorectal cancer cell lines HCT15, HCT116, HT29, HCC2998, and Caco2 were obtained from the National Cancer Institute, Bethesda, Md., USA, maintained in 5% CO2 at 3TC in minimum essential media containing 2.3 μM folic acid (MEM, Life Technologies, Inc., Grand Island, N.Y.) supplemented with 1% penicillin, streptomycin, amphotericin B (Invitrogen, Carlsbad, Calif.), and 10% fetal bovine serum (FBS) for all cell lines except Caco2, which required 20% FBS for optimal growth. Caco2 and HT29 cells were adapted to grow in a low-folate (LF) condition by step-wise reduction of the folate concentration in the medium and finally were stably adapted to grow in folate-free MEM supplemented with 20% and 10% FBS, respectively. The complete LF medium with 20% FBS for Caco2 cells contained 18 nM 5-methyltetrahydrofolate and the LF medium with 10% FBS for HT29 cells contained 9 nM 5-methyltetrahydrofolate. The cells were cultured in low 5-methyltetrahydrofolate conditioned medium for at least 20 generations before they were used in the experiments to promote full expression of folate receptors, and logarithmically growing cells were utilized for all studies.
# [4] = target: T1, IMPDH (Homo sapiens, UniProt P12268); assay: IMPDH activity in Caco2 cell lines after tiazofurin treatment; type: cell-based; conditions: 4 h
# T1 construct: endogenous in cells; host or cells: Caco2 (wild-type and hNMNAT2-transfected)
# Experimental: Panel A, Cells were Processed and NAD levels were determined in the cytoplasmic extracts as described in the Methods section, below. […] Triplicate flasks were set-up with each cell line and incubated with saline or tiazofurin (100-300 μM) for 4 h at 3TC. Cells were processed as described in the Methods section below. Basal IMPDH activity in saline treated control was 1.85 […] of XMP synthesized/mg protein/min; Panel D, NMNAT enzyme activity in wild-type and hNMNAT2 transfected Caco2 cell lines. The y-axis of the bar graph indicates the NMNAT activity in unit/mg of protein; Panel E, hNMNAT2 expression in cytoplasm, nucleus, and mitochondria. Cytoplasmic, nuclear, and mitochondrial proteins were isolated as detailed in the Methods section below and expression of hNMNAT2 protein was determined by Western blot analysis in wild-type and hNMNAT2 transfected caco2 cell lines; Panel F, silencing of hNMNAT2 expression in hNMNAT2 overexpressing cell line. hNMNAT2 expression in transfected Caco2 cell lines was silenced by shRNA-NMNAT2 and there expression was determined by Western blot analysis; Panel G, the wild-type, hNMNAT2 overexpressing, and hNMNAT2 overexpressing Caco2 cell lines were subjected to cell-kill by tiazofurin. ? […]
# Colorectal cancer cells were extracted and IMPDH activity was assayed as described and activity is expressed as nmol/min/mg protein [8]. […]
# [5] = test system: HCT116; assay: Cell-kill assay, HCT116; type: cell-based; conditions: Homo sapiens, HCT-116; free tiazofurin, 72 h
# Experimental: as §2
# [6] = test system: HCT15; assay: Cell-kill assay (dye-based cell proliferation), HCT15; conditions: Homo sapiens, HCT-15; free tiazofurin, 72 h
# Experimental: as §2
# [7] = test system: colorectal cancer; conditions: 21 patients, bolus once a day for 5 days; cited from earlier work
# [8] = test system: wild-type HT29; assay: Antitumor activity in athymic mice with subcutaneous wild-type HT29 tumors; type: in vivo
# Experimental: as §1
# [9] = test system: HCC2998; assay: Cell-kill assay, HCC2998; type: cell-based; conditions: Homo sapiens, HCC 2998; free tiazofurin, 72 h
# Experimental: as §2
# [10] = test system: HT29; assay: Cell-kill assay, wild-type HT29; type: cell-based, human; conditions: for EC50: wild-type HT29, free tiazofurin, 72 h, read-out: Cytotoxicity EC50, Wild-type
# Experimental: as §2
# [11] = test system: hNMNAT2 transfected HT29 cell line; assay: Cell-kill assay, hNMNAT2 transfected HT29; conditions: Homo sapiens, HT-29, 72 h, read-out: Cytotoxicity EC50, hNMNAT2
# Experimental: (§3) Colorectal cancer cells were transfected with pTracer hNMNAT2 and the control plasmid pTracerEFV5/HisA using the lipofectamine reagent (Invitrogen, Carlsbad, Calif.). Zeocin resistant green fluorescence protein (GFP) expressing clones were further analyzed by Fluorescence-activated cell sorting (Becton Dickinson Immunocytometry Systems, San Jose, Calif.).
# (§4) Colorectal cancer cells (1500 cells/0.1 ml) were dispensed into 96-well tissue culture plates and 24 h later treated with serial dilutions of free tiazofurin or nanoparticles containing tiazofurin (for nanoparticle treatment, cells were incubated for 2 h with gentle shaking, aspirated and fresh media was added) and further incubated for 72 h at 3TC. After incubation, 20 μl of 3-(4,5-dimethylthiazol-2-yl)-5-(3-carboxymethoxyphenyl)-2-(4-sulfophenyl)-2H-tetrazolium reagent was added to each well, mixed, plates were further incubated for 2 h and color developed was read at 490 nm using a microplate spectrophotometer (Spectra MAX250, Molecular Devices, Sunnnyvale, Calif.) and cell-kill data were analyzed by Graphpad Prism 4 software (GraphPad Software, San Diego, Calif.).
# [12] = test system: TAD concentration; assay: TAD concentration in colorectal cancer cells after tiazofurin treatment (HPLC); type: cell-based, human; conditions: 4 h
# Experimental: Panels A, B, D, and E, triplicate flasks were set-up with each cell line, treated with tiazofurin (0, 150 and 300 μM) for Caco2 and (0, 50 and 150 μM) for HT29 for 4 h and the cells were processed as detailed in Methods section below. The y-axis of the bar graph indicate the GTP concentration in nmol per million cells while the x-axis gives the tiazofurin concentration used; Panels C and F, effect of TAD concentration following tiazofurin treatment. Triplicate flasks were set-up with each cell line, treated with tiazofurin Caco2 (300 μM), and HT29 (150 μM) for 4 h and processed as detailed in Methods section below. The y-axis indicates the TAD concentration in nmol per million cells. ? […]
# For the determination of GTP and TAD, colorectal cancer cells were treated with concentration of tiazofurin (specified in legends to figures) or with saline for 4 h and cell extracts were prepared as detailed earlier. An aliquot of neutralized extract was injected into Phenomenex Gemini 250×4.6 mm, 5μ C18 110A column (Torrance, Calif.) maintained at 19° C., preequilibrated with buffer A (0.1 M potassium phosphate, pH 6.0) and then subjected to a stepwise gradient of buffer A with 20% acetonitrile, pH 6.0 over 30 min and analyzed on Shimadzu High Performance Liquid Chromatography (Canby, Oreg.). […]
# [13] = test system: GTP pools; assay: GTP concentration in colorectal cancer cells after tiazofurin treatment (HPLC); type: cell-based, human; conditions: 4 h
# Experimental: The y-axis of the bar graph indicate the GTP concentration in nmol per million cells while the x-axis gives the tiazofurin concentration used; Panels C and F, effect of TAD concentration following tiazofurin treatment. Triplicate flasks were set-up with each cell line, treated with tiazofurin Caco2 (300 μM), and HT29 (150 μM) for 4 h and processed as detailed in Methods section below. The y-axis indicates the TAD concentration in nmol per million cells. ? Wild-type (WT), ? hNMNAT2 transfected cell line. • *Denotes statistical significance (P<0.05) NS Denotes not significant
# For the determination of GTP and TAD, colorectal cancer cells were treated with concentration of tiazofurin (specified in legends to figures) or with saline for 4 h and cell extracts were prepared as detailed earlier. An aliquot of neutralized extract was injected into Phenomenex Gemini 250×4.6 mm, 5μ C18 110A column (Torrance, Calif.) maintained at 19° C., preequilibrated with buffer A (0.1 M potassium phosphate, pH 6.0) and then subjected to a stepwise gradient of buffer A with 20% acetonitrile, pH 6.0 over 30 min and analyzed on Shimadzu High Performance Liquid Chromatography (Canby, Oreg.). Under these conditions GTP eluted at 10 min separated from other nucleotides.
# [14] = test system: hNMNAT-2-shRNA knockdown cells (Caco2); assay: Cell-kill assay, hNMNAT-2-shRNA knockdown Caco2 cells; type: cell-based; conditions: Homo sapiens, Caco-2; hNMNAT2 overexpressing Caco2 silenced with hNMNAT2-shRNA, puromycin selected
# Description: Colorectal cancer Caco2 cells overexpressing hNMNAT2 were transfected with control shRNA plasmid and NMNAT2 small hairpin shRNA plasmid (sc-62693-SH: NMNAT2 shRNA Plasmid (h) is a pool of 3 different shRNA plasmids with a hairpin sequence: […] (SEQ ID NO: 3) and sc-62693-SHA: 5′-GUAGAAAGUGAGACUCAAUtt-3′ (SEQ ID NO: 4) and 5′-AUUGAGUCUCACUUUCUACtt-3′ (SEQ ID NO: 5); sc-62693-SHB: 5′-CCUUAGGAAUAGCAUUGUAtt-3′ (SEQ ID NO: 6) and 5′-UACAAUGCUAUUCCUAAGGtt-3′ (SEQ ID NO: 7); sc-62693-SHC: 5′-GCUCUUUCCCUCAACCUUAtt-3′ (SEQ ID NO: 8) and 5′-UAAGGUUGAGGGAAAGAGCtt-3′ (SEQ ID NO: 9). Transfection was conducted for 8 h as per manufacturer's instructions (Santa Cruz Biotechnology, Inc., Santa Cruz, Calif.). Puromycin resistant clones were selected and knockdown of hNMNAT2 was confirmed by Western blot analyses.
# [15] = test system: hNMNAT2 transfected Caco2 cell line; assay: Cell-kill assay, hNMNAT2 transfected Caco2; conditions: Homo sapiens, Caco-2, 72 h, read-out: Cytotoxicity EC50, hNMNAT2
# Experimental: as §3, §4
# [16] = test system: human colorectal carcinoma; conditions: mouse, in vivo; cited from earlier work
# [17] = 50 mg/kg intraperitoneally once-a-day for 10 days
# [18] = 200 mg/kg intraperitoneally once-a-day for 10 days
# T1 sequence (P12268 2-514): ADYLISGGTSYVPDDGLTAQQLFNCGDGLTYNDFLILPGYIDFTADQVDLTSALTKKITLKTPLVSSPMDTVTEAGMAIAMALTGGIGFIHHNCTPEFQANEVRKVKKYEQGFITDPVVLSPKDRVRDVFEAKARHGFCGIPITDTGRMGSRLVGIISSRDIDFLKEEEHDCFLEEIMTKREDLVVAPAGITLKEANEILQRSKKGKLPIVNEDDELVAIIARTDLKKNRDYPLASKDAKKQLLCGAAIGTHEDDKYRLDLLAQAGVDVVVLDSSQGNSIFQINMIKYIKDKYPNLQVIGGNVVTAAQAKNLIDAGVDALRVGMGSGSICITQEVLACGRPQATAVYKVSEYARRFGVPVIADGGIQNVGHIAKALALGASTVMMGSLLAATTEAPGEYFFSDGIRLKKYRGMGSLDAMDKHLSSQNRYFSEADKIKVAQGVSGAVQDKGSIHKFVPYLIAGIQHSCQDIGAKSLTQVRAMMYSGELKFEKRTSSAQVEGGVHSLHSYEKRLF
smiles,measurement,setting,value
"NC(=O)c1csc([C@@H]2O[C@H](CO)[C@@H](O)[C@H]2O)n1 [tiazofurin, 2-R-D-ribofuranosylthiazole-4-carboxamide]",Effect on tumor,[1]; [17],complete disappearance of tumor
same,Effect on tumor,[1]; [18],complete disappearance of tumor
same,Peak plasma concentration,[2],240 µM
same,EC50,"[3]; Homo sapiens, Caco-2, 72 h, wild-type Caco2, free tiazofurin, 72 h, read-out: Cytotoxicity EC50, Wild-type",450 µM
same,Influence of silencing hNMNAT3 on cell-kill by tiazofurin,"[3]; wild-type and hNMNAT2 overexpressing Caco2, siRNA-hNMNAT3 24 h",no change in the dose of tiazofurin required to provide 50% cell-kill
same,Influence of silencing hNMNAT1 on cell-kill by tiazofurin,"[3]; wild-type or hNMNAT2 overexpressing Caco2, siRNA-hNMNAT1 day 3",did not have any influence on cell-kill by tiazofurin
same,EC50,"[4]; hNMNAT2 transfected Caco2, tiazofurin 100-300 μM, read-out: EC50 of decrease in IMPDH activity",250 µM
same,Effect on IMPDH activity,"[4]; wild-type Caco2, sub-lethal tiazofurin 100-300 μM",no reduction in IMPDH activity
same,EC50,[5],72.6 µM
same,EC50,[6],63.9 µM
same,Antitumor activity,[7],no significant antitumor activity
same,Decrease in tumor volume,[8]; [17],50%
same,Decrease in tumor volume,[8]; [18],70%
same,EC50,[9],274 µM
same,EC50,"[10]; Homo sapiens, HT-29, 72 h",125 µM
same,EC50,[10],130 ± 8 µM
same,Influence of silencing hNMNAT3 on cell-kill by tiazofurin,"[10]; wild-type and hNMNAT2 overexpressing HT29, siRNA-hNMNAT3 24 h",did not influence cell-kill by tiazofurin
same,Influence of silencing hNMNAT1 on cell-kill by tiazofurin,"[10]; wild-type or hNMNAT2-overexpressing HT29, siRNA-hNMNAT1 day 3",had no effect on tiazofurin cell-kill
same,EC50,[11],80 ± 3 µM
same,Fold higher concentration of TAD in hNMNAT2 overexpressing vs wild-type cell line,"[12]; Caco2, tiazofurin 300 μM",2 fold
same,Fold higher levels of TAD in hNMNAT2-overexpressing vs wild-type cell line,"[12]; HT29, tiazofurin 150 μM",2 fold
same,Reduction in GTP levels,"[13]; hNMNAT2-transfected Caco2, 150 μM tiazofurin",40%
same,Reduction in GTP levels,"[13]; hNMNAT2-transfected Caco2, 300 μM tiazofurin",60%
same,Reduction in GTP levels,"[13]; hNMNAT2-transfected HT29, 25 μM tiazofurin",21%
same,Reduction in GTP levels,"[13]; hNMNAT2-transfected HT29, 100 μM tiazofurin",47%
same,Reduction in GTP pools,"[13]; wild-type Caco-2, 150 μM tiazofurin",29%
same,Reduction in GTP pools,"[13]; wild-type Caco-2, 300 μM tiazofurin",45%
same,GTP reduction,"[13]; wild-type HT29, 25 μM tiazofurin",did not result in GTP reduction
same,GTP reduction,"[13]; wild-type HT29, 100 μM tiazofurin",22%
same,EC50,[14],380 µM
same,EC50,[15],225 µM
same,Antitumor activity,[16],significant antitumor activity
